Data reported in ChEMBL document CHEMBL1201862, “PubChem BioAssay data set” (2004).
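In this assay, cells in 96-well plates receive the compound at five concentrations for 48 hours. Endpoints are linearly interpolated between the surrounding concentrations. At the GI50, growth is halved.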 Calls of active or inactive are those of the source. Rule as the data show it: active = GI50 up to about 1.1 µM and inactive = higher.

Columns and labels:
Assay in all cases: NCI anticancer screen, dose series, 48 h
[1] = test system: COLO 205
[2] = test system: Malme-3M
[3] = test system: EKVX
[4] = test system: NCI-H522
[5] = test system: KM12
[6] = test system: SW-620
[7] = test system: HCC 2998
[8] = test system: OVCAR-8
[9] = test system: SK-MEL-28
[10] = test system: MDA-MB-435
[11] = test system: NCI-H460
[12] = test system: NCI-H23
[13] = test system: A549
[14] = test system: SN12C
[15] = test system: ACHN
[16] = test system: HCT-116
[17] = test system: LOX IMVI
[18] = test system: HOP-92
[19] = test system: NCI-H226
[20] = test system: HCT-15

SMILES | GI50 [1] | GI50 [2] | GI50 [3] | GI50 [4] | GI50 [5] | GI50 [6] | GI50 [7] | GI50 [8] | GI50 [9] | GI50 [10] | GI50 [11] | GI50 [12] | GI50 [13] | GI50 [14] | GI50 [15] | GI50 [16] | GI50 [17] | GI50 [18] | GI50 [19] | GI50 [20] [µM]
COC(=O)[C@H](Cc1c[nH]c2ccccc12)NC(=O)c1ccc(CNC(=O)/C(C)=C/c2ccccc2)cc1 | 22.8 µM (inactive) | 13 µM (inactive) | 57.3 µM (inactive) | 14.6 µM (inactive) | 87.7 µM (inactive) | > 100 µM (inactive) | 15.6 µM (inactive) | 66.7 µM (inactive) | 18.2 µM (inactive) | 36.4 µM (inactive) | 27.9 µM (inactive) | 25.7 µM (inactive) | 75.7 µM (inactive) | > 100 µM (inactive) | 52.5 µM (inactive) | 71.4 µM (inactive) | 44.3 µM (inactive) | 16 µM (inactive) | > 100 µM (inactive) | 48.1
COc1cc(OC)c(C/C=C/c2ccccc2)cc1O | 22 µM (inactive) | 16.2 µM (inactive) | 17.2 µM (inactive) | 12.6 µM (inactive) | 17.7 µM (inactive) | 18.9 µM (inactive) | 16.3 µM (inactive) | 16.1 µM (inactive) | 16.6 µM (inactive) | 17 µM (inactive) | 17.3 µM (inactive) | 17.4 µM (inactive) | 19.4 µM (inactive) | 16 µM (inactive) | 25.7 µM (inactive) | 16.4 µM (inactive) | 16 µM (inactive) | 13.6 µM (inactive) | 17.9 µM (inactive) | 16.5
CCCCCC1=C/C(=C\c2[nH]c(-c3ccc[nH]3)cc2OC)N=C1C | < 0.01 µM (active) | 0.0448 µM (active) | 0.0145 µM (active) | < 0.01 µM (active) | < 0.01 µM (active) | < 0.01 µM (active) | 0.0113 µM (active) | < 0.01 µM (active) | 0.0215 µM (active) | < 0.01 µM (active) | 0.0124 µM (active) | 0.0128 µM (active) | 0.0167 µM (active) | < 0.01 µM (active) | < 0.01 µM (active) | < 0.01 µM (active) | < 0.01 µM (active) | < 0.01 µM (active) | 0.012 µM (active) | < 0.01
Cc1cc(C)nc(SC(C)C(=O)N/N=C/c2ccc(OCc3ccccc3)cc2)n1 (stereo not given) | 20.8 µM (inactive) | 22.3 µM (inactive) | 25.2 µM (inactive) | 15.3 µM (inactive) | > 100 µM (inactive) | 39.5 µM (inactive) | 28.1 µM (inactive) | 30.4 µM (inactive) | 53.2 µM (inactive) | 26.7 µM (inactive) | 17.1 µM (inactive) | 18 µM (inactive) | 31.3 µM (inactive) | 31.3 µM (inactive) | 25.2 µM (inactive) | 23.9 µM (inactive) | 22.1 µM (inactive) | 28.6 µM (inactive) | 18.9 µM (inactive) | 26.4
CNc1ncc(-c2nnnn2-c2ccccc2)c(CN(C)C)n1 | > 100 µM (inactive) | > 100 µM (inactive) | > 100 µM (inactive) | > 100 µM (inactive) | > 100 µM (inactive) | > 100 µM (inactive) | > 100 µM (inactive) | > 100 µM (inactive) | > 100 µM (inactive) | > 100 µM (inactive) | > 100 µM (inactive) | > 100 µM (inactive) | > 100 µM (inactive) | > 100 µM (inactive) | > 100 µM (inactive) | > 100 µM (inactive) | > 100 µM (inactive) | > 100 µM (inactive) | > 100 µM (inactive) | > 100
COc1cccc2c3cccc(OC)c3c3[nH]cnc3c12 | 16.5 µM (inactive) | 3.88 µM (inactive) | 14.7 µM (inactive) | 1.55 µM (inactive) | 2.02 µM (inactive) | 1.73 µM (inactive) | 3.46 µM (inactive) | 1.94 µM (inactive) | 5.24 µM (inactive) | 2.06 µM (inactive) | 1.72 µM (inactive) | 1.84 µM (inactive) | 1.57 µM (inactive) | 5.45 µM (inactive) | 8.81 µM (inactive) | 1.63 µM (inactive) | 1.98 µM (inactive) | 6.04 µM (inactive) | 15.9 µM (inactive) | 1.76
CCCNC1=C2CC(C)CC(OC)[C@@H](O)[C@H](C)/C=C(\C)C(OC(N)=O)C(OC)/C=C\C=C(/C)C(=O)NC(=CC1=O)C2=O (stereo not given in full) | 0.0319 µM (active) | 0.0612 µM (active) | 3.36 µM (inactive) | 0.00678 µM (active) | 0.0362 µM (active) | 0.0379 µM (active) | 0.264 µM (active) | 0.337 µM (active) | 0.0627 µM (active) | 0.274 µM (active) | 0.0685 µM (active) | 0.0847 µM (active) | 0.0847 µM (active) | 0.0809 µM (active) | 0.502 µM (active) | 0.231 µM (active) | 0.103 µM (active) | 0.124 µM (active) | 0.551 µM (active) | 0.321
N#Cc1c(Cl)nc2ccccc2c1N=[N+]=[N-] | 1.88 µM (inactive) | 2.18 µM (inactive) | 2.25 µM (inactive) | 1.99 µM (inactive) | 6.4 µM (inactive) | 1.73 µM (inactive) | 6.12 µM (inactive) | 3.02 µM (inactive) | 2.95 µM (inactive) | 7.38 µM (inactive) | 5.19 µM (inactive) | 2.52 µM (inactive) | 16.6 µM (inactive) | 5.14 µM (inactive) | 2.11 µM (inactive) | 1.66 µM (inactive) | 1.67 µM (inactive) | 1.7 µM (inactive) | 12.5 µM (inactive) | 2.02
Cc1c(C)n(-c2ccccc2)c2nc([S+](C)[O-])nc([S+](C)[O-])c12 (stereo not given) | 1.75 µM (inactive) | 1.98 µM (inactive) | 6.92 µM (inactive) | 1.89 µM (inactive) | 13.3 µM (inactive) | 1.79 µM (inactive) | 15.2 µM (inactive) | 4.09 µM (inactive) | 4.15 µM (inactive) | 3.1 µM (inactive) | 18.8 µM (inactive) | 13.9 µM (inactive) | 16.6 µM (inactive) | 8.28 µM (inactive) | 5.83 µM (inactive) | 2.14 µM (inactive) | 1.81 µM (inactive) | 1.96 µM (inactive) | 17.9 µM (inactive) | 5
c1ccc2c3nnc(c2c1)SCCCSc1nnc(c2ccccc12)SCCCS3 | > 100 µM (inactive) | 34.8 µM (inactive) | > 100 µM (inactive) | 42.5 µM (inactive) | > 100 µM (inactive) | > 100 µM (inactive) | > 100 µM (inactive) | 36.7 µM (inactive) | 44.7 µM (inactive) | > 100 µM (inactive) | 34.4 µM (inactive) | 71.1 µM (inactive) | 58.5 µM (inactive) | > 100 µM (inactive) | 72.3 µM (inactive) | > 100 µM (inactive) | > 100 µM (inactive) | 32.9 µM (inactive) | 24.3 µM (inactive) | > 100
COC1C(O)C(O[C@H]2CC[C@@]3(C)C(CC[C@@H]4[C@@H]3CC[C@]3(C)[C@@H](C(C)OC5OC(CO)C(O)C(O)C5O)CC[C@]43O)C2)OC(C)C1OC1OC(CO)C(O)C(O)C1O (stereo not given in full) | > 100 µM (inactive) | > 100 µM (inactive) | > 100 µM (inactive) | > 100 µM (inactive) | > 100 µM (inactive) | > 100 µM (inactive) | > 100 µM (inactive) | > 100 µM (inactive) | > 100 µM (inactive) | > 100 µM (inactive) | > 100 µM (inactive) | > 100 µM (inactive) | > 100 µM (inactive) | > 100 µM (inactive) | > 100 µM (inactive) | > 100 µM (inactive) | > 100 µM (inactive) | > 100 µM (inactive) | > 100 µM (inactive) | > 100
O=c1[nH]c(-c2ccccc2)nc2c1sc1nc3ccccc3n12 | > 100 µM (inactive) | > 100 µM (inactive) | > 100 µM (inactive) | > 100 µM (inactive) | > 92.7 µM (inactive) | > 100 µM (inactive) | > 100 µM (inactive) | > 100 µM (inactive) | > 100 µM (inactive) | > 100 µM (inactive) | > 100 µM (inactive) | > 100 µM (inactive) | > 100 µM (inactive) | > 100 µM (inactive) | 61.4 µM (inactive) | > 100 µM (inactive) | > 100 µM (inactive) | > 100 µM (inactive) | > 100 µM (inactive) | > 100
O=C1C(Cl)=C(N[C@@H](Cc2ccccc2)C(=O)OCc2ccccc2)C(=O)c2c(O)ccc(O)c21 | 2.28 µM (inactive) | 5.35 µM (inactive) | 7.18 µM (inactive) | 6.41 µM (inactive) | 4.45 µM (inactive) | 5.65 µM (inactive) | > 10 µM (inactive) | 3.73 µM (inactive) | 6.34 µM (inactive) | 3.17 µM (inactive) | 4.59 µM (inactive) | 4.42 µM (inactive) | 3.47 µM (inactive) | 3.93 µM (inactive) | 4.05 µM (inactive) | 1.65 µM (inactive) | 2.99 µM (inactive) | 6.3 µM (inactive) | 5.3 µM (inactive) | 1.19
CC1(C)COC(c2ccc(C(=O)c3ccc(Cl)cc3)cc2)=N1 | > 100 µM (inactive) | 42.5 µM (inactive) | 44.6 µM (inactive) | > 100 µM (inactive) | > 100 µM (inactive) | > 100 µM (inactive) | > 100 µM (inactive) | 84.9 µM (inactive) | > 100 µM (inactive) | 44.5 µM (inactive) | > 100 µM (inactive) | 6.95 µM (inactive) | 83 µM (inactive) | > 100 µM (inactive) | > 100 µM (inactive) | > 100 µM (inactive) | > 100 µM (inactive) | 85.1 µM (inactive) | 23 µM (inactive) | > 100
